Measurements published in ChEMBL document CHEMBL1201862, “PubChem BioAssay data set” (2004).
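1) Cells in 96-well plates. 2) Compound, 48 h, 5 concentrations. 3) Linear interpolation between surrounding doses. 4) Unreached endpoint = highest concentration. Here, GI50 denotes the concentration required for 50% inhibition of growth.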 Activity calls are given as the source filed them. No stated cut-off is given here; in the data, active = GI50 up to about 1.1 µM and inactive = higher.

Assays:
Experiment in all cases: NCI-60 cell line screen, 48 h
M19-MEL = system: M19-MEL
RXF 631 = system: RXF 631
LXFL 529 = system: LXFL 529
HOP-18 = system: HOP-18
DMS-273 = system: DMS-273
DLD-1 = system: DLD-1
XF498 = system: XF498
DMS-114 = system: DMS-114
SNB-78 = system: SNB-78

Measured: GI50

Nc1nc(Cl)cc(NCCCCCCNc2cc(Cl)nc(N)n2)n1
inactive: M19-MEL > 100 µM | RXF 631 > 100 µM | LXFL 529 32.7 µM | HOP-18 > 100 µM | DMS-273 > 100 µM | DLD-1 > 100 µM | XF498 30.6 µM

CCCNCCCC(NC(C)=O)C(=O)NCc1ccccc1 (stereo not given)
inactive: M19-MEL > 100 µM | RXF 631 > 100 µM | LXFL 529 > 100 µM | DMS-114 > 100 µM | SNB-78 > 100 µM | DMS-273 > 100 µM | DLD-1 > 100 µM | XF498 > 100 µM

CCOP(=O)(OCC)OC1C=CC2CCC1C2 (stereo not given)
inactive: RXF 631 > 100 µM | LXFL 529 > 100 µM | DMS-114 87.9 µM | SNB-78 > 100 µM | HOP-18 > 100 µM | DMS-273 18.6 µM | DLD-1 > 100 µM | XF498 > 100 µM

NC(=O)N/N=C1/CCCC/C1=C\c1ccccc1
inactive: M19-MEL > 100 µM | RXF 631 > 100 µM | LXFL 529 > 100 µM | DMS-114 > 100 µM | SNB-78 > 100 µM | HOP-18 > 100 µM | DMS-273 > 100 µM | DLD-1 > 100 µM

Cc1cc2c(c3c1c1ccccc1n3C)C(=O)c1ccccc1C2=O
inactive: M19-MEL > 100 µM | RXF 631 > 100 µM | LXFL 529 > 100 µM | DMS-114 > 100 µM | SNB-78 > 100 µM | DMS-273 > 100 µM | DLD-1 > 100 µM | XF498 60.1 µM

Cc1ccccc1CN1CC=c2ccccc2=N1
inactive: M19-MEL > 100 µM | RXF 631 > 100 µM | DMS-114 > 100 µM | SNB-78 > 100 µM | HOP-18 > 100 µM | DMS-273 > 100 µM | DLD-1 > 100 µM | XF498 68.1 µM

COC(=O)C(CCC1(C)OCCO1)C(C)=O (stereo not given)
inactive: M19-MEL > 100 µM | RXF 631 > 100 µM | LXFL 529 > 100 µM | DMS-114 > 100 µM | SNB-78 > 100 µM | HOP-18 > 100 µM | DMS-273 > 100 µM | DLD-1 > 100 µM | XF498 > 100 µM

CCCCCCCCCCCCCS(=O)(=O)O
inactive: M19-MEL > 100 µM | RXF 631 > 100 µM | LXFL 529 > 100 µM | DMS-114 > 100 µM | SNB-78 > 100 µM | HOP-18 3.08 µM | DLD-1 > 100 µM | XF498 > 100 µM

O=C1C=CC(=CC=C2C=CN(CCCCCCCCCCC(=O)NCCCCCCCCCCCC(=O)O)C=C2)C=C1
inactive: M19-MEL > 100 µM | RXF 631 > 100 µM | LXFL 529 > 100 µM | DMS-114 > 100 µM | SNB-78 > 100 µM | DMS-273 > 100 µM | DLD-1 > 100 µM | XF498 > 100 µM

Oc1cc(-c2ccccc2)nc2cc3c(cc12)OCO3
inactive: M19-MEL 3.21 µM | RXF 631 2.9 µM | LXFL 529 1.82 µM | SNB-78 3.72 µM | HOP-18 > 100 µM | DMS-273 11.7 µM | DLD-1 6.56 µM | XF498 26.9 µM
